Structures can show the parent of a compound that is named as a salt. Where two headings read alike, the source gives them in different places.
Key:
[1] = target: T1, HO-2 (rat brain) (Rattus norvegicus, UniProt P23711); assay: HO enzymatic activity in rat brain microsomal fraction (CO formed from methemalbumin, gas chromatography); type: biochemical
T1 construct: brain microsomes were used as a source of HO-2; from tissue; host or cells: brain microsomal fraction of adult male Sprague-Dawley rats
T1 sequence (P23711 1-315): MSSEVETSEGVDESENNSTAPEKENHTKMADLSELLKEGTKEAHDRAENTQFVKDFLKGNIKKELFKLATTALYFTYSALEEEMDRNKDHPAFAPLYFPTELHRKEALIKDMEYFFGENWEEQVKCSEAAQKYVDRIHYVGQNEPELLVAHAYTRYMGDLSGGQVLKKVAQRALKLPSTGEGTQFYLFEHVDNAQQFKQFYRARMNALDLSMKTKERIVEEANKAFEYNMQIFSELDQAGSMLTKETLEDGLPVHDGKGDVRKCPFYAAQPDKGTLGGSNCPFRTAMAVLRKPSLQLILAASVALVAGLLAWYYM

[2] = target: T2, HO-1 (rat spleen) (Rattus norvegicus, UniProt P06762); assay: HO enzymatic activity in rat spleen microsomal fraction (CO formed from methemalbumin, gas chromatography); type: biochemical
T2 construct: Spleen microsomes were used as a source of HO-1; from tissue; host or cells: spleen microsomal fraction of adult male Sprague-Dawley rats
T2 sequence (P06762 1-289): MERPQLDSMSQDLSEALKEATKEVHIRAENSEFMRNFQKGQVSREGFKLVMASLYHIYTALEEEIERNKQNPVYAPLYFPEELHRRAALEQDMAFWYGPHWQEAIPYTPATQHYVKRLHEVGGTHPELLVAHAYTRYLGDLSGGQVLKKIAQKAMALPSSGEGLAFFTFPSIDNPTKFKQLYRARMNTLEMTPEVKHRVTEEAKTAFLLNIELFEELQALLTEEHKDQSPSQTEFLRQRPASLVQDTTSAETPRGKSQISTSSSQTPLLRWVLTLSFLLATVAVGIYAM

[3] = rat brain microsomes, average ± standard deviation of replicate experiments, read-out: IC50 HO-2 (rat brain)/μM
[4] = rat spleen microsomes, average ± standard deviation of replicate experiments, read-out: IC50 HO-1 (rat spleen)/μM
[5] = rat brain microsomes, average ± standard deviation of replicate experiments
[6] = rat spleen microsomes, average ± standard deviation of replicate experiments

| IC50 [1, 3] [µM] | IC50 [2, 4] [µM] | SMILES | further results |
| --- | --- | --- | --- |
| > 100 | > 100 | OC(CCc1ccccc1)Cn1cnc(-c2ccccc2)c1-c1ccccc1 (racemic) [(±)-1-(4,5-diphenyl-imidazol-1-yl)-4-phenyl-butan-2-ol] | – |
| > 100 | 15 ± 1 | OC(CCc1ccccc1)Cn1cnc(-c2ccccc2)c1 (racemic) [(±)-4-phenyl-1-(4-phenyl-imidazol-1-yl)-butan-2-ol hydrochloride] | – |
| > 100 | 3.85 ± 0.07 | O=C(Cc1ccccc1)C(Cn1ccnc1)c1ccccc1 (racemic) [(±)-4-(1H-imidazol-1-yl)-1,3-diphenyl-butan-2-one hydrochloride] | – |
| > 100 | > 100 | O=C(CCc1ccccc1)Cn1cnc(Br)c1 [1-(4-Bromo-imidazol-1-yl)-4-phenyl-butan-2-one] | – |
| 35 ± 3 | 2.1 ± 0.1 | O=C(Cn1ccnc1)c1ccc(F)cc1 [1-(4-fluoro-phenyl)-2-imidazol-1-yl-ethanone hydrochloride] | – |
| > 100 | 86 ± 30 | c1cn(Cc2ccc(Cn3ccnc3)cc2)cn1 [1-(4-(1H-Imidazol-1-ylmethyl)benzyl)-1H-imidazole dihydrochloride] | – |
| > 100 | > 100 | Clc1ccc(/C(Cn2ccnc2)=N\Nc2ccccc2)cc1 | – |
| 90 ± 33 | 9 ± 2 | O=C(CCc1ccccc1)Cn1cnc(-c2ccccc2)n1 [4-Phenyl-1-(3-phenyl-[1,2,4]triazol-1-yl)-butan-2-one] | – |
| 1.6 ± 0.3 | 0.59 ± 0.04 | Clc1ccc(CC[C@@]2(Cn3ccnc3)OCC(COc3ccccc3)O2)cc1 (stereo in doubt) [(2R,4S)-1-{2-[2-(4-chloro-phenyl)-ethyl]-4-phenoxymethyl-[1,3]dioxolan-2-ylmethyl}-1H-imidazole hydrochloride] | – |
| > 100 | 40 ± 7 | c1ccc2c(CCn3ccnc3)c[nH]c2c1 [3-[2-(1H-Imidazol-1-yl)-ethyl]-1H-indole hydrochloride] | – |
| 114 ± 56 | 28 ± 6 | O=C(CCc1ccccc1)CCn1ccnc1 [1-imidazol-1-yl-5-phenyl-pentan-3-one hydrochloride] | – |
| > 100 | 32 ± 2 | O=C(CCc1ccccc1)Cn1cnc(-c2ccccc2)c1 [drawing 162, 4-Phenyl-1-(4-phenyl-imidazol-1-yl)-butan-2-one hydrochloride] | – |
| 4 ± 0.6 | 0.5 ± 0.1 | OC(CCc1ccc(Cl)cc1)Cn1ccnc1 (stereo not shown) [4-(4-chlorophenyl)-1-(1H-imidazol-1-yl)butan-2-ol hydrochloride] | – |
| 2.3 ± 0.2 | 1.99 ± 0.05 | O=C(Cn1ccnc1)c1ccc(Cc2ccccc2)cc1 [1-(4-benzyl-phenyl)-2-imidazol-1-yl-ethanone hydrochloride] | – |
| > 100 | > 100 | COC(=O)Nc1nc2ccc(Sc3ccccc3)cc2[nH]1 [Fenbendazol, reference compound] | – |
| 1.8 ± 0.7 | 0.11 ± 0.06 | O=C(CCc1ccc(I)cc1)Cn1ccnc1 [4-(4-iodophenyl)-1-(1H-imidazol-1-yl)butan-2-one hydrochloride] | – |
| 22 ± 3 | 3.7 ± 0.4 | [O-][S+](CCCn1ccnc1)c1ccccc1 (stereo not shown) [1-(3-benzenesulfinyl-propyl)-1H-imidazole hydrochloride] | – |

The remaining lines, values behind:

| SMILES | IC50 [1, 3] [µM] | IC50 [2, 4] [µM] | further results |
| --- | --- | --- | --- |
| O=C(Cn1cncn1)c1ccc(-c2ccccc2)cc1 [1-Biphenyl-4-yl-2-[1,2,4]triazol-1-yl-ethanone] | 7 ± 4 | 0.74 ± 0.05 | – |
| c1ccc(OCCn2ccnc2)cc1 [1-(2-phenoxy-ethyl)-1H-imidazole hydrochloride] | > 100 | 61 ± 29 | – |
| Cc1nccn1CC1(CCc2ccc(Cl)cc2)OCCO1.Cl | – | – | IC50 HO-2 (rat brain)/μM [1, 5]: INACTIVE; IC50 HO-1 (rat spleen)/μM [2, 6]: INACTIVE |
| Cc1ccc(S(=O)(=O)OC[C@@H]2CO[C@@](CCc3ccc(Cl)cc3)(Cn3ccnc3)O2)cc1 [(2R,4S)-2-[2-(4-chlorophenyl)ethyl]-2-[(1H-imidazol-1-yl)methyl]-4-[(p-toluenesulfonyloxy)meth-yl]-1,3-dioxolane] | – | – | IC50 [1]: 3 ± 1 µM; IC50 [2]: 6 ± 2 µM |
| O=C(Cn1cncn1)c1ccc([N+](=O)[O-])cc1 [1-(4-Nitro-phenyl)-2-[1,2,4]triazol-1-yl-ethanone hydrochloride] | > 100 | 19.2 ± 0.5 | – |
| Nc1ccc(SC[C@@H]2CO[C@@](CCc3ccc(Cl)cc3)(Cn3ccnc3)O2)cc1 [(2R,4S)-2-[2-(4-chlorophenyl)ethyl]-2-[(1H-imidazol-1-yl)methyl]-4-[{(4-aminophenyl)thio}meth-yl]-1,3-dioxolane hydrochloride] | 8 ± 1 | 0.33 ± 0.07 | – |
| Clc1ccc(C2(Cn3cncn3)OCCO2)cc1 [1-[2-(4-chloro-phenyl)-[1,3]dioxolan-2-ylmethyl]-1H-[1,2,4]triazole] | > 100 | 68.7 ± 0.6 | – |
| Cc1nccn1CC(=O)CCc1ccc(Cl)cc1.Cl | – | – | IC50 HO-2 (rat brain)/μM [1, 5]: INACTIVE; IC50 HO-1 (rat spleen)/μM [2, 6]: INACTIVE |
| Fc1ccc(SC[C@@H]2CO[C@@](CCc3ccc(Cl)cc3)(Cn3ccnc3)O2)cc1 [(2R,4S)-2-[2-(4-chlorophenyl)ethyl]-2-[(1H-imidazol-1-yl)methyl]-4-[{(4-fluorophenyl)thio}meth-yl]-1,3-dioxolane hydrochloride] | 5 ± 4 | 2.2 ± 0.2 | – |
| Clc1ccc(CC[C@]2(Cn3ccnc3)OC[C@@H](CSc3ccc4ccccc4c3)O2)cc1 [(2S,4S)-2-[2-(4-chlorophenyl)ethyl]-2-[(1H-imidazol-1-yl)methyl]-4-[{(2-naphthyl)thio}methyl]-1,3-dioxolane hydrochloride] | 62 ± 7 | 14 ± 2 | – |
| ClC[C@@H]1CO[C@@](CCc2ccc(Cl)cc2)(Cn2ccnc2)O1 [(2R,4S)-1-{4-chloromethyl-2-[2-(4-chloro-phenyl)-ethyl]-[1,3]dioxolan-2-ylmethyl}-1H-imidazole hydrochloride] | 122 ± 30 | 3.5 ± 0.1 | – |
| Fc1ccc(COC(Cn2ccnc2)c2ccc(-c3ccc(Br)cc3)cc2)cc1 (racemic) [(±)-1-[2-(4′-bromo-biphenyl-4-yl)-2-(4-fluoro-benzyloxy)-ethyl]-1H-imidazole] | > 100 | 5 ± 2 | – |
| O=C(Cn1cncn1)c1ccc2ccccc2c1 [1-Naphthalen-2-yl-2-[1,2,4]triazol-1-yl-ethanone hydrochloride] | 42 ± 10 | 0.7 ± 0.1 | – |
| CC(C)(C)c1ccc(CCC(=O)Cn2ccnc2)cc1 [4-(4-tert-Butyl-phenyl)-1-(1H-imidazol-1-yl)-butan-2-one hydrochloride] | 0.9 ± 0.2 | 0.2 ± 0.03 | – |
| Clc1ccc(CC[C@@]2(Cn3ccnc3)OCC(COc3ccc(C45CC6CC(CC(C6)C4)C5)cc3)O2)cc1 (stereo in doubt) [(2R,4S)-2-[2-(4-chlorophenyl)ethyl]-2-[(1H-imidazol-1-yl)methyl]-4-[(4-adamantan-1-yl-phenoxy)methyl]-1,3-dioxolane hydrochloride] | > 100 | > 100 | – |
| Cl.OC(Cn1ccnc1)Cn1ccnc1 [1,3-Di-(1H-imidazol-1-yl)propan-2-ol dihydrochloride] | – | – | IC50 HO-2 (rat brain)/μM [1, 5]: Inactive; IC50 HO-1 (rat spleen)/μM [2, 6]: Inactive |
| Cn1ccnc1 [1-methylimidazole hydrochloride, reference compound] | > 100 | > 100 | – |
| OC(CCn1ccnc1)C12CC3CC(CC(C3)C1)C2 (racemic) [(±)-1-adamantan-1-yl-3-imidazol-1-yl-propan-1-ol hydrochloride] | 6.5 ± 0.1 | 2 ± 0.6 | – |
| CSC[C@@H]1CO[C@@](CCc2ccc(Cl)cc2)(Cn2ccnc2)O1 [(2R,4S)-2-[2-(4-chlorophenyl)ethyl]-2-[(1H-imidazol-1-yl)methyl]-4-[(methylthio)methyl]-1,3-dioxolane hydrochloride] | 19 ± 7 | 9 ± 2 | – |
| c1ccc(CCC2(Cn3ncnn3)OCCO2)cc1 [2-(2-Phenethyl-[1,3]dioxolan-2-ylmethyl)-2H-tetrazole hydrochloride] | > 100 | 72 ± 1 | – |
| c1ccc(CCC2(Cn3cnnn3)OCCO2)cc1 [1-(2-Phenethyl-[1,3]dioxolan-2-ylmethyl)-1H-tetrazole hydrochloride] | > 100 | 39 ± 5 | – |
| c1ccc(CCn2ccnc2)cc1 [1-Phenethyl-1H-imidazole] | > 100 | 72 ± 11 | – |
| Clc1ccc(CC[C@@]2(Cn3ccnc3)OC[C@@H](CSc3ccncc3)O2)cc1 [(2R,4S)-2-[2-(4-chlorophenyl)ethyl]-2-[(1H-imidazol-1-yl)methyl]-4-[{(4-pyridinyl)thio}methyl]-1,3-dioxolane dihydrochloride] | 69 ± 8 | 25 ± 5 | – |
| O=C(CCc1ccc(OC(=O)c2ccccc2)cc1)Cn1ccnc1 [4-(4-(1H-Imidazol-1-yl)-3-oxobutyl)phenyl benzoate hydrochloride] | > 100 | 6.7 ± 0.2 | – |

From US20140155445A1, “Compounds and Methods for Treating Cancer and Diseases of the Central Nervous System” (Osta Biotechnologies Inc., priority 2007, published 2014)
